From patent US7972780B2, “ITPase gene polymorphisms associated with adverse drug reactions to azathioprine therapy” (Guy's and St. Thomas' NHS Foundation Trust, priority 2004, dated 2011)
Read-outs that look alike come from different tables or passages of the source.

Legend:
[1] = system: Caucasian patients with IBD; conditions: for Odds ratio, All side effects: ADR n = 62 vs controls n = 68; for Odds ratio, Hepatotoxicity / Odds ratio, Other: n = 4 vs controls; for Odds ratio, Neutropenia: n = 11 vs controls; for Odds ratio, Flu-like symptoms: n = 16 vs controls
patients = conditions: Dubinsky et al. 2001; cited from earlier work
[2] = ITPA 94C>A, TPMT heterozygous genotypes excluded

## Cn1cnc([N+](=O)[O-])c1Sc1ncnc2nc[nH]c12 [azathioprine]
[1]; ITPA 94C > A variant genotype
  Odds ratio, All side effects: 4.2
[1]; ITPA 94C > A
  Odds ratio, Hepatotoxicity: 10.3
  Odds ratio, Other: 3.4
  Odds ratio, Neutropenia: 1.0
  Odds ratio, Flu-like symptoms: 4.7
[1]; ITPA 94C > A, n = 6 vs controls
  Odds ratio, Rash: 10.3
[1]; ITPA 94C > A, n = 8 vs controls
  Odds ratio, Pancreatitis: 6.2
[1]; ITPA 94C > A, n = 13 vs controls
  Odds ratio, Nausea and vomiting: 3.1
[1]; [2]
  Odds ratio, Nausea and vomiting: 6.2
  Odds ratio, Pancreatitis: 7.8
  Odds ratio, Rash: 15.5
[1]; ITPA 94C>A, TPMT heterozygous genotypes excluded from side-effect cohort
  Odds ratio, adverse drug reactions: 5.3
[1]; ITPA IVS2 + 21A > C variant genotype
  Odds ratio, All side effects: 0.7
[1]; ITPA IVS2 + 21A > C
  Odds ratio, Hepatotoxicity: 0.5
  Odds ratio, Other: 4.2
  Odds ratio, Neutropenia: 0.4
  Odds ratio, Flu-like symptoms: 1.0
[1]; ITPA IVS2 + 21A > C, n = 6 vs controls
  Odds ratio, Rash: 0.9
[1]; ITPA IVS2 + 21A > C, n = 8 vs controls
  Odds ratio, Pancreatitis: 0.6
[1]; ITPA IVS2 + 21A > C, n = 13 vs controls
  Odds ratio, Nausea and vomiting: 0.4
[1]; TPMT *3A + C variant genotype
  Odds ratio, All side effects: 1.7
[1]; TPMT *3A + C
  Odds ratio, Hepatotoxicity: 2.9
  Odds ratio, Neutropenia: 0.9
  Odds ratio, Flu-like symptoms: 0.3
[1]; TPMT *3A + C, n = 6 vs controls
  Odds ratio, Rash: 4.4
[1]; TPMT *3A + C, n = 8 vs controls
  Odds ratio, Pancreatitis: 1.3
[1]; TPMT *3A + C, n = 13 vs controls
  Odds ratio, Nausea and vomiting: 5.5
[1]; TPMT and ITPA 94C>A genotypes combined
  Odds ratio, risk of experiencing an adverse drug reaction: 3.5
[1]; of the 4 re-challenged patients heterozygous for a variant TPMT allele
  patients remaining intolerant on re-challenge with reduced dose: two patients remained intolerant
[1]; of the 62 patients suffering adverse drug reactions
  patients in whom therapy could be continued at full dose: 5
[1]; patients with ITPA 94C>A alleles
  patients who tolerated a reduced dose: 3 of 6
IBD patients; ITPA 94C>A, 6 patients
  Odds ratio, Rash: 10.833
IBD patients; ITPA 94C>A, 11 patients
  Odds ratio, flu-like symptoms: 6.190
IBD patients; ITPA 94C>A, 64 ADR patients vs 71 without side-effects, dominant model
  Odds ratio, adverse drug reactions to AZA therapy: 4.239
IBD patients; variant TPMT genotypes, subset of 14 patients
  Odds ratio, Nausea and vomiting: 5.079

## Nc1nc2nc[nH]c2c(=S)[nH]1 [thioguanine, 6-thioguanine]
patients
  use in patients with 6-MP/AZA-related toxicity: used successfully
